Columns and labels:
Assay in all cases: Test A pre-/postemergence herbicide test
Details in all cases: 1000 g ai/ha
velvetleaf = format: in vivo, Abutilon theophrasti
How it was run: (§1)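 Directed soil spray to seeded pots (preemergence) or spray onto one- to two-leaf seedlings 2–10 cm tall (postemergence); loam/sand substrate throughout. Evaluated visually after about 10 days against untreated plants, 0 = no effect, 100 = complete control.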

pigweed = format: in vivo, Amaranthus retroflexus
How it was run: as §1

giant foxtail = format: in vivo, Setaria faberii
How it was run: as §1

crabgrass, large = format: in vivo, Digitaria sanguinalis
Text: (§2) Seeds of plant species selected from bamyardgrass (Echinochloa crus-galli), kochia (Kochia scoparia), ragweed (common ragweed, Ambrosia elatior), ryegrass, Italian (Italian ryegrass, Lolium multiflorum), crabgrass, large (large crabgrass Digitaria sanguinalis), giant foxtail (Setaria faberii), morningglory (Ipomoea spp.), pigweed (Amaranthus retroflexus), velvetleaf (Abutilon theophrasti), wheat (Triticum aestivum), and corn (Zea mays) were planted into a blend of loam soil and sand and treated preemergence with a directed soil spray using test chemicals formulated in a non-phytotoxic solvent mixture which included a surfactant. At the same time, plants selected from these crop and weed species and also blackgrass (Alopecurus myosuroides), and galium (catchweed bedstraw, Galium aparine) were planted in pots containing the same blend of loam soil and sand and treated with postemergence applications of test chemicals formulated in the same manner. Plants ranged in height from 2 to 10 cm and were in the one- to two-leaf stage for the postemergence treatment. Treated plants and untreated controls were maintained in a greenhouse for approximately 10 days, after which time all treated plants were compared to untreated controls and visually evaluated for injury. Plant response ratings, summarized in Table A, are based on a 0 to 100 scale where 0 is no effect and 100 is complete control. A dash (-) response means no test result.

barnyardgrass = format: in vivo, Echinochloa crus-galli
Text: as §2

corn = format: in vivo, Zea mays
Text: as §2

morningglory = format: in vivo, Ipomoea spp.
Text: as §2

wheat = format: in vivo, Triticum aestivum
Text: as §2

[1] = Postemergence, 0 to 100 scale (0 no effect, 100 complete control)
[2] = preemergence, 0 to 100 scale (0 no effect, 100 complete control)
[3] = Preemergence, visual rating on 0 to 100 scale (0 no effect, 100 complete control), approx. 10 days

SMILES	Plant response rating, Velvetleaf (velvetleaf; [1])	Plant response rating, Velvetleaf (velvetleaf; preemergence, 0 to 100 scale)	Plant response rating, Pigweed (pigweed; [1])	Plant response rating, Pigweed (pigweed; preemergence, 0 to 100 scale)	Plant response rating, Foxtail, Giant (giant foxtail; [1])	Plant response rating, Foxtail, Giant (giant foxtail; preemergence, 0 to 100 scale)	Plant response rating, Crabgrass, Large (crabgrass, large; [1])	Plant response rating, Crabgrass, Large (crabgrass, large; preemergence, 0 to 100 scale)	Plant response rating, Barnyardgrass (barnyardgrass; [1])	Plant response rating, Barnyardgrass (barnyardgrass; [2])	Plant response rating, Corn (corn; [1])	Plant response rating, Corn (corn; preemergence, 0 to 100 scale)	Plant response rating, Morningglory (morningglory; [1])	Plant response rating, Morningglory (morningglory; preemergence, 0 to 100 scale)	Plant response rating, Wheat (wheat; [1])	Plant response rating, Wheat (wheat; preemergence, 0 to 100 scale)	further results
Cn1ccc(C2CNC(=O)C2C(=O)Nc2cccc(F)c2F)n1 (racemic) [Compound 192]	0	0	0	0	0	0	0	0	0	0	0	0	0	0	0	0	–
Cn1ccnc1C1CNC(=O)C1C(=O)Nc1ccccc1F (racemic) [Compound 255]	0	0	0	0	0	70	0	90	0	60	0	0	0	0	0	0	–
O=C1NCC(c2ccc(F)c(F)c2)C1C(=O)Nc1cccc(=O)[nH]1 (racemic) [Compound 96]	0	–	0	–	0	–	0	–	0	–	0	–	0	–	0	–	Plant response rating, Velvetleaf (velvetleaf; [3]): 0; Plant response rating, Pigweed (pigweed; [3]): 0; Plant response rating, Foxtail, Giant (giant foxtail; [3]): 0; Plant response rating, Crabgrass, Large (crabgrass, large; [3]): 0; Plant response rating, Barnyardgrass (barnyardgrass; [3]): 0; Plant response rating, Corn (corn; [3]): 0; Plant response rating, Morningglory (morningglory; [3]): 0; Plant response rating, Wheat (wheat; [3]): 0
